These results are taken from ChEMBL document CHEMBL1201862, “PubChem BioAssay data set” (2004).

Some test systems named below: CCRF-CEM; COLO 205; DU-145; HOP-92; K562; MDA-MB-231; MOLT-4; NCI-H226; NCI-H23; OVCAR-3; OVCAR-4; RPMI-8226; SF-268; SK-MEL-28; SK-MEL-2; SK-OV-3; SN12C; SW-620; TK-10; UO-31.
Experiment in all cases: DTP human tumour cell line panel, 48 h

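Grown in 96-well plates, cells were treated for 48 hours with each compound at five concentrations. Insufficient inhibition: endpoint recorded as highest concentration tested. GI50 marks 50% less growth.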 Activity calls are given as the source filed them. Rule as the data show it: active = GI50 up to about 1.1 µM and inactive = higher.

As usually defined, the GI50 is the concentration at which growth is held to half of that of the control. `CCCCCCCCCCCC[S+](C)C`: the GI50 in the test with CCRF-CEM was 2.04 µM (inactive); in the test with COLO 205 it was 1.29 µM (inactive); in the test with DU-145, 1.61 µM (inactive); in the test on HOP-92, 1.63 µM (inactive); with K562 it was 3.48 µM (inactive); with MDA-MB-231, 0.0124 µM (active). The GI50 with MOLT-4 was 4.94 µM (inactive); with NCI-H226, 1.77 µM (inactive); in the test on NCI-H23, 4.48 µM (inactive); with OVCAR-3, 5.38 µM (inactive); in the test with OVCAR-4, 6.07 µM (inactive); in the test with RPMI-8226, 3.41 µM (inactive). The GI50 with SF-268 is 6.68 µM (inactive); in the test with SK-MEL-28, 10.5 µM (inactive); in the test on SK-MEL-2, 5.02 µM (inactive); in the test on SK-OV-3, 8.49 µM (inactive); with SN12C, 3.88 µM (inactive); in the test with SW-620, 9.23 µM (inactive). The GI50 in the test on TK-10 was 3.15 µM (inactive); in the test with UO-31, 10.1 µM (inactive).
